The values that follow come from US9051325B2, “Bicyclic [5,6] imidazo pyrimodone compounds for use in the treatment of diseases or conditions mediated by Lp-PLA2” (GlaxoSmithKline Intellectual Property Development Limited, priority 2013, dated 2015).

Assay [1] has as its target T1, recombinant human Lp-PLA2 (Homo sapiens, UniProt Q13093).
T1 sequence (Q13093 22-441): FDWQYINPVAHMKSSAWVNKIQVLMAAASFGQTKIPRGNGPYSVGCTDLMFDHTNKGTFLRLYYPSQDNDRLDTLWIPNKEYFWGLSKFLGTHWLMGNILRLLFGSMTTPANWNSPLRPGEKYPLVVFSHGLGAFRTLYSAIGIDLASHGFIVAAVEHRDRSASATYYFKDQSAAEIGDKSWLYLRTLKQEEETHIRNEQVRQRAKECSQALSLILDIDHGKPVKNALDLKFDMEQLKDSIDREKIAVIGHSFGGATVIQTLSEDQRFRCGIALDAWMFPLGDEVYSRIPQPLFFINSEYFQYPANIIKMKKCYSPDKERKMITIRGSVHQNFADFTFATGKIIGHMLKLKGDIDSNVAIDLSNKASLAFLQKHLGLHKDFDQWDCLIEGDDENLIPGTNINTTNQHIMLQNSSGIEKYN
Put plainly: Recombinant human Lp-PLA2 assay (rhLp-PLA2, PED6 assay). The assay is classed as biochemical. Summed up: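 Compounds were preincubated 30 min with 4 nM […] rhLp-PLA2 in 50 mM HEPES pH 7.4, 150 mM NaCl, 1 mM CHAPS, then PED6 substrate […] was added for 20 min at room temperature in the dark. Fluorescence was read at ex 480/em 540, and pIC50 was fitted from 1:3 serial dilutions.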

The target of assay [2] is T2, Lp-PLA2 in human plasma (Homo sapiens, UniProt Q13093).
T2 construct: from tissue; host or cells: pooled human plasma
T2 sequence (Q13093 22-441): T1 sequence (Q13093 22-441)
The assay can be described thus: Lp-PLA2 human plasma assay (Thio-PAF assay). The assay is classed as biochemical. The following applies: pooled human plasma; lower bounds; read-out: pIC50 values in the thio-PAF assay (converted). A digest of the protocol:
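Pooled human plasma preincubated 30 min with compounds, then given 2-thio-PAF substrate with CPM and NEM in 50 mM HEPES pH 7.4, 150 mM NaCl, 1 mM CHAPS. Reaction quenched after 2 min with TFA and read by fluorescence (ex 380/em 485) after 40 min at room temperature; pIC50 from curve fit.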

Where [3] appears, read: lower bounds, read-out: pIC50 values in the PED6 assay (converted).
[4] abbreviates: read-out: rhLp-PLA2 (PED6 assay) (pIC50) (converted).

Where two headings read alike, the source gives them in different places.

`[2H]C1([2H])n2c(cc(OCc3cccc(F)c3F)nc2=O)N(C)C1(C)C` [Example E136, 7-((2,3-difluorobenzyl)oxy)-1,2,2-trimethyl-3,3-dideutero-2,3-dihydroimidazo[1,2-c]pyrimidin-5(1H)-one]: the IC50 in assay [1] (setting [3]) is at most 10 nM; in assay [2] it was at most 100 nM.

As for `CN1c2cc(OCc3cccc(F)c3F)nc(=O)n2CC1(C)C` [Example E103, 7-((2,3-difluorobenzyl)oxy)-1,2,2-trimethyl-2,3-dihydroimidazo[1,2-c]pyrimidin-5(1H)-one], the IC50 was at most 10 nM in assay [1] (setting [3]) and at most 100 nM in assay [2].

Turning to `C[C@@H]1Cn2c(cc(OCc3ccc(F)c(F)c3)nc2=O)N1C` [Example E106, (R)-7-((3,4-difluorobenzyl)oxy)-1,2-dimethyl-2,3-dihydroimidazo[1,2-c]pyrimidin-5(1H)-one], the IC50 is at most 10 nM in assay [1] (setting [3]) and at most 100 nM in assay [2].

Consider `CC1Cn2c(cc(OCc3ccc(F)c(C#N)c3)nc2=O)N1C` (centres unmarked) [Example E121, 5-(((1,2-dimethyl-5-oxo-1,2,3,5-tetrahydroimidazo[1,2-c]pyrimidin-7-yl)oxy)methyl)-2-fluorobenzonitrile], for which the IC50 is at most 10 nM in assay [1] (setting [3]) and at most 100 nM in assay [2].

For `CN1c2cc(OCc3cc(F)c(Oc4cnc(C(F)(F)F)nc4)c(F)c3)nc(=O)n2CC1(C)C` [Example E95, 7-((3,5-difluoro-4-((2-(trifluoromethyl)pyrimidin-5-yl)oxy)benzyl)oxy)-1,2,2-trimet-hyl-2,3-dihydroimidazo[1,2-c]pyrimidin-5(1H)-one], the IC50 is at most 1 nM in assay [1] (setting [3]), 0.0794 nM in assay [1] (setting [4]) and at most 100 nM in assay [2].

`[2H]C1([2H])n2c(cc(OCc3cc(F)cc(F)c3)nc2=O)N(C)C1(C)C` [Example E137, 7-((3,5-difluorobenzyl)oxy)-1,2,2-trimethyl-3,3-dideutero-2,3-dihydroimidazo[1,2-c]pyrimidin-5(1H)-one]: the IC50 was at most 10 nM in assay [1] (setting [3]) and at most 100 nM in assay [2].

As to `C[C@H]1Cn2c(cc(OCc3cc(F)c(F)c(F)c3)nc2=O)N1` [Example E49, (S)-2-methyl-7-((3,4,5-trifluorobenzyl)oxy)-2,3-dihydroimidazo[1,2-c]pyrimidin-5(1H)-one], the IC50 in assay [1] (setting [3]) was at most 10 nM; in assay [2], at most 100 nM.

As to `C[C@H]1Cn2c(cc(OCc3cc(F)c(Oc4ccnc(C(F)(F)F)c4)c(F)c3)nc2=O)N1` [Example E131, (S)-7-((3,5-difluoro-4-((2-(trifluoromethyl)pyridin-4-yl)oxy)benzyl)oxy)-2-methyl-2,3-dihydroimidazo[1,2-c]pyrimidin-5(1H)-one], the IC50 in assay [1] (setting [3]) is at most 1 nM; in assay [2], at most 100 nM.

Take `C[C@H]1Cn2c(cc(OCc3ccc(F)c(F)c3)nc2=O)N1C` [Example E7, (S)-7-((3,4-difluorobenzyl)oxy)-1,2-dimethyl-2,3-dihydroimidazo[1,2-c]pyrimidin-5(1H)-one]: the IC50 was at most 10 nM in assay [1] (setting [3]) and at most 100 nM in assay [2].

Consider `C[C@@H]1Cn2c(cc(OCc3ccc(F)c(C#N)c3)nc2=O)N1C` [Example E53, (R)-5-(((1,2-dimethyl-5-oxo-1,2,3,5-tetrahydroimidazo[1,2-c]pyrimidin-7-yl)oxy)methyl)-2-fluorobenzonitrile], for which the IC50 in assay [1] (setting [3]) is at most 10 nM; in assay [2], at most 100 nM.

Take `CC1(C)Cn2c(cc(OCc3cc(F)c(Oc4ccnc(F)c4)c(F)c3)nc2=O)N1` [Example E116, 7-((3,5-difluoro-4-((2-fluoropyridin-4-yl)oxy)benzyl)oxy)-2,2-dimethyl-2,3-dihydroimidazo[1,2-c]pyrimidin-5(1H)-one]: the IC50 is at most 1 nM in assay [1] (setting [3]) and at most 100 nM in assay [2].

`CC1(C)Cn2c(cc(OCc3ccc(Oc4cncc(Cl)c4)c(F)c3)nc2=O)N1` [Example E90, 7-((4-((5-chloropyridin-3-yl)oxy)-3-fluorobenzyl)oxy)-2,2-dimethyl-2,3-dihydroimidazo[1,2-c]pyrimidin-5(1H)-one]: the IC50 was at most 1 nM in assay [1] (setting [3]) and at most 100 nM in assay [2].

For the compound `CN1c2cc(OCc3cc(F)c(Oc4ccnc(Cl)c4)c(F)c3)nc(=O)n2CC1(C)C` [Example E30, 7-((4-((2-chloropyridin-4-yl)oxy)-3,5-difluorobenzyl)oxy)-1,2,2-trimethyl-2,3-dihydroimidazo[1,2-c]pyrimidin-5(1H)-one], the results for the IC50 in assay [1] (setting [3]) and in assay [2] were at most 1 nM and at most 100 nM, respectively.

As to `C[C@H]1Cn2c(cc(OCc3cc(F)c(F)c(F)c3)nc2=O)N1C` [Example E108, (S)-1,2-dimethyl-7-((3,4,5-trifluorobenzyl)oxy)-2,3-dihydroimidazo[1,2-c]pyrimidin-5(1H)-one], the figures for the IC50 in assay [1] (setting [3]) and in assay [2] were at most 10 nM and at most 100 nM, respectively.

As for `C[C@@H]1Cn2c(cc(OCc3ccc(Oc4cncc(C(F)(F)F)c4)c(C#N)c3)nc2=O)N1C` [Example E123, (R)-5-(((1,2-dimethyl-5-oxo-1,2,3,5-tetrahydroimidazo[1,2-c]pyrimidin-7-yl)oxy)methyl)-2-((5-(trifluoromethyl)pyridin-3-yl)oxy)benzonitrile], the IC50 in assay [1] (setting [3]) was at most 1 nM; in assay [2] it was at most 100 nM.

Consider `C[C@H]1Cn2c(cc(OCc3ccc(Oc4cncc(Cl)c4)c(F)c3)nc2=O)N1C` [Example E23, (S)-7-((4-((5-chloropyridin-3-yl)oxy)-3-fluorobenzyl)oxy)-1,2-dimethyl-2,3-dihydroimidazo[1,2-c]pyrimidin-5(1H)-one], for which the IC50 in assay [1] (setting [3]) is at most 1 nM; in assay [1] (setting [4]) it was 0.158 nM; in assay [2] it was at most 100 nM.

Turning to `CC1(C)Cn2c(cc(OCc3cc(F)c(Oc4ccnc(C(F)(F)F)c4)c(F)c3)nc2=O)N1` [Example E127, 7-((3,5-difluoro-4-((2-(trifluoromethyl)pyridin-4-yl)oxy)benzyl)oxy)-2,2-dimethyl-2,3-dihydroimidazo[1,2-c]pyrimidin-5(1H)-one], the IC50 in assay [1] (setting [3]) is at most 1 nM; in assay [2] it was at most 100 nM.

Turning to `C[C@H]1Cn2c(cc(OCc3cc(F)c(Oc4ccc(C(F)(F)F)nc4)c(F)c3)nc2=O)N1C` [Example E73, (S)-7-((3,5-difluoro-4-((6-(trifluoromethyl)pyridin-3-yl)oxy)benzyl)oxy)-1,2-dimethyl-1-2,3-dihydroimidazo[1,2-c]pyrimidin-5(1H)-one], the IC50 in assay [1] (setting [3]) was at most 1 nM; in assay [2], at most 100 nM.

For `C[C@H]1Cn2c(cc(OCc3cc(F)c(Oc4ccc(C(F)(F)F)nc4)c(F)c3)nc2=O)N1` [Example E16, (S)-7-((3,5-difluoro-4-((6-(trifluoromethyl)pyridin-3-yl)oxy)benzyl)oxy)-2-methyl-2,3-dihydroimidazo[1,2-c]pyrimidin-5(1H)-one], the IC50 in assay [1] (setting [3]) is at most 1 nM; in assay [2], at most 100 nM.

Regarding `[2H]C([2H])([2H])N1c2cc(OCc3cccc(F)c3F)nc(=O)n2CC1(C)C` [Example E104, 7-((2,3-difluorobenzyl)oxy)-1-trideuteromethyl-2,2-dimethyl-2,3-dihydroimidazo[1,2-c]pyrimidin-5(1H)-one], the results for the IC50 in assay [1] (setting [3]) and in assay [2] were at most 10 nM and at most 100 nM, respectively.

With `C[C@H]1Cn2c(cc(OCc3ccc(Oc4ccc(Cl)c(C#N)c4)c(F)c3)nc2=O)N1C` [Example E89, (S)-2-chloro-5-(4-(((1,2-dimethyl-5-oxo-1,2,3,5-tetrahydroimidazo[1,2-c]pyrimidin-7-yl)oxy)methyl)-2-fluorophenoxy)benzonitrile], the IC50 is at most 1 nM in assay [1] (setting [3]) and at most 100 nM in assay [2].

As to `C[C@H]1Cn2c(cc(OCc3ccc(Oc4cncc(C(F)(F)F)c4)c(F)c3)nc2=O)N1C` [Example E54, (S)-7-((3-fluoro-4-((5-(trifluoromethyl)pyridin-3-yl)oxy)benzyl)oxy)-1,2-dimethyl-2,3-dihydroimidazo[1,2-c]pyrimidin-5(1H)-one], the IC50 was at most 1 nM in assay [1] (setting [3]), 0.126 nM in assay [1] (setting [4]) and at most 100 nM in assay [2].

Regarding `C[C@H]1Cn2c(cc(OCc3ccc(Oc4ccnc(C(F)(F)F)c4)c(F)c3)nc2=O)N1C` [Example E10, (S)-7-((3-fluoro-4-((2-(trifluoromethyl)pyridin-4-yl)oxy)benzyl)oxy)-1,2-dimethyl-2,3-dihydroimidazo[1,2-c]pyrimidin-5(1H)-one], the figures for the IC50 in assay [1] (setting [3]) and in assay [2] were at most 1 nM and at most 100 nM, respectively.

For the compound `C[C@H]1Cn2c(cc(OCc3ccc(F)c(C#N)c3)nc2=O)N1` [Example E74, (S)-2-fluoro-5-(((2-methyl-5-oxo-1,2,3,5-tetrahydroimidazo[1,2-c]pyrimidin-7-yl)oxy)methyl)benzonitrile], the IC50 is at most 10 nM in assay [1] (setting [3]) and at most 100 nM in assay [2].

As for `CC1(C)Cn2c(cc(OCc3ccc(Oc4ccc(F)nc4)c(F)c3)nc2=O)N1` [Example E69, 7-((3-fluoro-4-((6-fluoropyridin-3-yl)oxy)benzyl)oxy)-2,2-dimethyl-2,3-dihydroimidazo[1,2-c]pyrimidin-5(1H)-one], the results for the IC50 in assay [1] (setting [3]) and in assay [2] were at most 1 nM and at most 100 nM, respectively.
